Test results reported in paper PMC10092844, “Inhibition profile of trifludimoxazin towards PPO2 target site mutations” (Pest Management Science, 2022).
Positions count from the first letter of the chain named. Where two headings read alike, the source gives them in different places.

Tests used:
PPO2 ΔG210 = target: T1, PPO2 ΔG210 (Amaranthus tuberculatus, UniProt Q0NZW9, DEL210-210); type: biochemical
T1 sequence (Q0NZW9 with tags, fused parts or gaps DEL210-210): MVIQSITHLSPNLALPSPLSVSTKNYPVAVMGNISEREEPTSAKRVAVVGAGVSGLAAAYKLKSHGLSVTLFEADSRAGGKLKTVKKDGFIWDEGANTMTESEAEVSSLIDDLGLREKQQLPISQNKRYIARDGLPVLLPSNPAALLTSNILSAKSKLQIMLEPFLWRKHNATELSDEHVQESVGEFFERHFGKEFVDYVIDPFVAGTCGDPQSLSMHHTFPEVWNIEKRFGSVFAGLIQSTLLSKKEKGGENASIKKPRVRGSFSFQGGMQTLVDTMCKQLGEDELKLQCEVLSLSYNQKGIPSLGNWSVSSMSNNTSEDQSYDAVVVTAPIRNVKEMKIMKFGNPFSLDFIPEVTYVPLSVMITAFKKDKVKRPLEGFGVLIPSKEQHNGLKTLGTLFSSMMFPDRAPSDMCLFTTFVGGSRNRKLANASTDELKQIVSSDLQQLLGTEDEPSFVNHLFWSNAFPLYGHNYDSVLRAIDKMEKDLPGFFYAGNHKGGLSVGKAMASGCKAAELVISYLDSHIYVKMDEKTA

PPO2 R128C ΔG210 = target: T2, PPO2 R128C ΔG210 (Amaranthus tuberculatus, UniProt Q0NZW9, DEL210/R128C); test: biochemical; type: biochemical
T2 sequence (Q0NZW9 with tags, fused parts or gaps R128C/DEL210): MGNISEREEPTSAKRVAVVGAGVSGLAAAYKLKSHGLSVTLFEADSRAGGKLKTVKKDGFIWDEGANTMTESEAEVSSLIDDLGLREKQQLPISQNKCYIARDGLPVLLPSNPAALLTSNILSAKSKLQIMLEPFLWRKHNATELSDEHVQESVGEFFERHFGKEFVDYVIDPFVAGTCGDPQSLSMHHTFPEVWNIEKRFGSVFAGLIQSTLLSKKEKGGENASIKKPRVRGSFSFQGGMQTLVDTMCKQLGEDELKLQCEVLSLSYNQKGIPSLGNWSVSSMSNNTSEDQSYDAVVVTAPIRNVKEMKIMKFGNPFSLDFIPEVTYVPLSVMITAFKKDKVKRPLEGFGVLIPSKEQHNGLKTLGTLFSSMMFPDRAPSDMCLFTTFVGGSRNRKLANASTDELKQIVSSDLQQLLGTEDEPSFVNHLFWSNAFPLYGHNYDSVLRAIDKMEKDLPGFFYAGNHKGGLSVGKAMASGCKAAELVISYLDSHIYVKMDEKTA

PPO2 R128M ΔG210 = target: T3, PPO2 R128M ΔG210 (Amaranthus tuberculatus, UniProt Q0NZW9, DEL210-210/R128M); test: biochemical; type: biochemical
T3 sequence (Q0NZW9 with tags, fused parts or gaps R128M/DEL210-210): T2 sequence (Q0NZW9 with tags, fused parts or gaps R128C/DEL210) with C98M

[1] = target: R128(X) ΔG210 double-mutant enzymes; type: biochemical, Amaranthus tuberculatus
[2] = target: T4, PPO2 R128I ΔG210 in Escherichia coli hemG (Amaranthus tuberculatus, UniProt Q0NZW9, DEL210-210/R128I, cells depend on it); type: cell-based; settings: read-out: IC50 (E. coli hemG growth)
T4 sequence (Q0NZW9 with tags, fused parts or gaps R128I/DEL210-210): T2 sequence (Q0NZW9 with tags, fused parts or gaps R128C/DEL210) with C98I

[3] = target: T5, PPO2 R128Q ΔG210 in Escherichia coli hemG (Amaranthus tuberculatus, UniProt Q0NZW9, DEL210-210/R128Q, cells depend on it); type: cell-based; settings: read-out: IC50 (E. coli hemG growth)
T5 sequence (Q0NZW9 with tags, fused parts or gaps R128Q/DEL210-210): T1 sequence (Q0NZW9 with tags, fused parts or gaps DEL210-210) with R128Q

PPO2 wild-type = PPO2 wild-type (Amaranthus tuberculatus, UniProt Q0NZW9); test: in vitro inhibition assay, recombinant PPO2 enzyme; type: biochemical
[4] = read-out: IC50 (over R128(X) ΔG210 mutants)

PPO2 wild-type, sequence (Q0NZW9 entry or part of it): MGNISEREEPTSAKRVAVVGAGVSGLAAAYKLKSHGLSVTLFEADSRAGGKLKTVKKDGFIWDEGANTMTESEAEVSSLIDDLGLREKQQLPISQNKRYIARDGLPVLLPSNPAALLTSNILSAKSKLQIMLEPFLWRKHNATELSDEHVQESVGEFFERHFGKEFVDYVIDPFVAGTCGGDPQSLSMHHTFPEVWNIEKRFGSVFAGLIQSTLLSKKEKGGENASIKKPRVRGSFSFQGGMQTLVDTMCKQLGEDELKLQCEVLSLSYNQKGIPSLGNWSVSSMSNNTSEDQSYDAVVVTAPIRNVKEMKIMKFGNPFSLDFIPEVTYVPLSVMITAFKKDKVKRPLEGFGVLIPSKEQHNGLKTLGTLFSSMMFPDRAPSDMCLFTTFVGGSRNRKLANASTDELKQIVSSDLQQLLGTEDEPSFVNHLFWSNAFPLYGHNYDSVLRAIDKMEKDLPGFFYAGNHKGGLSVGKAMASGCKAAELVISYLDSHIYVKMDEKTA

CS(=O)(=O)NC(=O)c1cc(Oc2ccc(C(F)(F)F)cc2Cl)ccc1[N+](=O)[O-] [Fomesafen, fomesafen]
IC50 (PPO2 ΔG210): > 10000 nM
IC50 (PPO2 R128C ΔG210): > 10000 nM
IC50 (PPO2 R128M ΔG210): > 10 µM
IC50 [1, 4]: < 10000 nM

CCOC(=O)C(C)OC(=O)c1cc(Oc2ccc(C(F)(F)F)cc2Cl)ccc1[N+](=O)[O-] (stereo not drawn) [Lactofen, lactofen]
IC50 (PPO2 ΔG210): 544 nM
IC50 (PPO2 R128C ΔG210): 2150 nM
IC50 (PPO2 R128M ΔG210): > 10 µM
IC50 [2]: > 10 µM
IC50 [3]: > 10 µM
IC50 ([1]; read-out: IC50 values): > 10000 nM
IC50 ([1]; read-out: IC50 values (range over variants)): 100 to 1000 nM

CC(C)N(C)S(=O)(=O)NC(=O)c1cc(-n2c(=O)cc(C(F)(F)F)n(C)c2=O)c(F)cc1Cl [Saflufenacil, saflufenacil]
IC50 (PPO2 ΔG210): 2040 nM
IC50 (PPO2 R128C ΔG210): > 10000 nM
IC50 (PPO2 R128M ΔG210): > 10 µM
IC50 [2]: > 10 µM
IC50 [3]: > 10 µM
IC50 [1, 4]: < 10000 nM

C#CCN1C(=O)C(F)(F)Oc2cc(F)c(-n3c(=O)n(C)c(=S)n(C)c3=O)cc21 [Trifludimoxazin, trifludimoxazin]
Resistance factor (PPO2 wild-type): 1
IC50 (PPO2 ΔG210): 1.83 nM
Resistance factor (PPO2 ΔG210): 7
IC50 (PPO2 R128C ΔG210): 31.1 nM
Resistance factor (PPO2 R128C ΔG210): 127
IC50 (PPO2 R128M ΔG210): 0.182 µM
Resistance factor (PPO2 R128M ΔG210): 743
IC50 [2]: 0.0829 µM
IC50 [3]: 0.00986 µM
IC50 [1, 4]: 1 to 100 nM
